Measurements: a melting point compilation (Tetko et al.; mined from patent text by program, amines drawn as free bases though some values may be those of a salt)

| SMILES | melting point [°C] |
| --- | --- |
| N#Cc1cnc2cc(F)c(O)cc2c1Cl | > 250 |
| CCN(CC)CCOc1ccc(C(O)(CC)c2ccc(Cl)cc2)cc1 (centres undefined) | 50 to 51 |
| Nc1c(Cl)cc(C(=O)Cl)cc1Cl | 165 |
| C=C(C)/C=C(\NC(C)=O)C1(c2ccc(Cl)cc2)CCC1 | 120 |
| FC(F)(F)c1cc(-c2ccc(Cl)cc2)nc2c(-c3cccnc3)cnn12 | 188 |
| Cn1ncnc1COc1nn2c(-c3ccccc3F)nncc2c1I | 218 to 219 |
| Clc1ccc(CNc2ccccc2-n2ccnc2)c(Cl)c1 | 100 to 103 |
| CS(=O)CCCn1c(=N)sc2cc(OC(F)(F)F)ccc21 (racemic) | 114 |
| CCn1c(C)nc2cc([N+](=O)[O-])c(Sc3cccc4cnccc34)cc21 | 226 to 229 |
| CC(C)(C)OC(=O)N[C@@H](Cc1ccc(O)cc1)C(=O)NCC(=O)NCC(=O)O | 92 to 94 |
| Cc1ccccc1N(CCC(=O)O)C(=O)Cl | 112 |
| N#Cc1cccc2c1COc1ccc(OCc3ccc4ccc(Cl)cc4n3)cc1C2SCCC(=O)O (centres undefined) | 193 to 195 |
| CC(=O)OC1CSC(Oc2cncc(-c3ccc(OC(C)C)c(F)c3)c2)C(OC(C)=O)C1OC(C)=O (centres undefined) | 65 |
| CSc1ncc(Br)cn1 | 63 to 65 |
| Cc1ncc2c(=O)n(C)c(=O)n(C)c2n1 | 113 to 115 |
| CCCCCCCCCCCCCCc1ccc(O)c(CC)c1 | 45.5 to 46.5 |
| CC(C)(OCc1cc2nc(Cl)ccc2n1S(=O)(=O)c1ccc2c(c1)CCO2)C(=O)O | 169 |
| CC(C)(C#N)c1cc(Cn2cnnc2)cc(C(C)(C)C#N)c1 | 158 to 161 |
| Cc1ccc(S(=O)(=O)NC(C)P(=O)(Oc2ccccc2)c2ccccc2)cc1 (centres undefined) | 178 to 181 |

| SMILES | melting point [°C] |
| --- | --- |
| CCC(C)C(NC(=O)C(CS)C(F)(F)F)C(=O)O (centres undefined) | 140 to 142 |
| O=C1CCCCCCCCCCC(O)CCCO1 (centres undefined) | 59 to 61 |
| CC(C)Sc1nc(-n2ccnc2)c(I)c(C(F)(F)F)n1 | 118 to 120 |
| NC(=O)NC1CCCc2sc(Br)cc21 (centres undefined) | 206 to 210 |
| Cc1c(C(=O)C(=O)NC2=CC(=O)OC2)c2ccccc2n1Cc1ccc(Cl)cc1 | 254 to 256 |
| COC(=O)c1cc(Cl)c2cccc(OC)c2n1 | 139 to 141 |
| Oc1ccc(Nc2ncc3ncc(-c4cccc(O)c4)cc3n2)cc1 | > 268 |
| CS(=O)(=O)Oc1ccccc1S(N)(=O)=O | 131 to 132 |
| CCS(=O)(=O)N(c1cc([N+](=O)[O-])c(F)cc1Br)S(=O)(=O)CC | 144 to 146 |
| Cc1oc(-c2ccccc2)nc1COc1ccc(CON=C(CCC(=O)O)c2ccc(Oc3ccccc3)cc2)cc1 | 131 to 132 |
| CC(=O)Nc1cc(F)ccc1O | 185 to 186 |
| O=Cc1cc2cc(Cl)c(Cl)cc2[nH]1 | 188 to 190 |
| CCOC(=O)[C@H](Cc1ccc(-c2c(OC)cc(COS(C)(=O)=O)cc2OC)cc1)NC(=O)c1c(Cl)cccc1Cl | 109 |
| CCCCCCCNC(=O)CCCCO | 53 to 54 |
| CON(C)C(=O)c1ccc(-n2ccnc2)nc1 | 69 to 70 |
| CC(=O)OC(C(=O)N(C)c1ccc(N(C)C(=O)C(OC(C)=O)c2ccccc2)cc1)c1ccccc1 (centres undefined) | 180 to 183 |
| Oc1c(CCc2ccccc2)cnc2c(-c3cc(-c4ccccc4)cs3)cnn12 | 278 to 285 |
| Cc1ccc(C2=NNC(=O)CC2)c(OCC(O)CNC(C)(C)C)c1 (centres undefined) | 130 |
| Cc1cc(C)cc(OCC(=O)c2ccccc2Br)c1 | 74 |

| SMILES | melting point [°C] |
| --- | --- |
| CCN1CCCC1CNC(=O)c1cc(S(=O)(=O)NC)cc2c1OCCO2 (centres undefined) | 136 to 137 |
| COC(=O)C(C)(SC)c1ccc(N2CCCCC2)c(Cl)c1 (centres undefined) | 83.5 to 85 |
| CC(C)(C)C(=O)CNC(=O)c1nn(-c2ccc(F)cc2F)c2c1C1CCC2C1 (centres undefined) | 42 to 43 |
| Clc1ncc(C(c2ccccc2)c2ccccc2)cc1C(c1ccccc1)c1ccccc1 | 131 to 133 |
| N#Cc1cnn2c(-c3ccccc3C(F)(F)F)ccnc12 | 196 to 197 |
| Clc1ccc(/C=C/c2ccc(Cl)cc2)cc1 | 176 |
| Nc1cc(I)cnc1N | 109 to 111 |
| Cc1cc(C)nc(NC(=O)NS(=O)(=O)c2cccc3c2CCCC3)n1 | 152 to 155 |
| N#CCCN(CCC#N)c1ccccc1C#N | 79 to 82 |
| CCOC(=O)C(Oc1cc(-c2ccccc2)on1)C(=O)OCC | 62 to 64 |
| CCC(CC)C(=O)Nc1ccc2ncnc(NC=C(C(=O)OC)C(=O)OC)c2c1 | 221 to 225 |
| Nc1cc(Cl)ccc1C(=O)NCCCc1cccnc1 | 145 to 147 |
| CCOC(=O)c1cn(-c2cccnc2)nc1Br | 94 to 95 |
| Cc1cccc(CCCCCCCCC(=O)NO)c1 | 49 to 50 |
| CC(C)NC(=O)c1c(I)cccc1C(=O)Nc1ccc(OCC(F)(F)F)nc1 | 220 to 225 |
| CC(C)Oc1ccc(NC(=O)C2(C)CC2)cc1C(F)(F)F | 106 to 109 |
| COc1ccc(CNc2c(C)c(C)c3c(c2C)C(c2ccccc2)C(C)(C)O3)cc1 (centres undefined) | 113 to 115 |
| Cc1c(-c2ncc(Cl)cc2F)nn(C)c1C#N | 144 to 146 |

Next, values leading:

| melting point [°C] | SMILES |
| --- | --- |
| 78 to 80 | O[C@H](COc1cccc2cc(-c3nnc(-c4ccccc4)o3)oc12)CN1CCC(c2ccc3ccccc3c2)CC1 |
| 83 | COc1ccccc1S(=O)(=O)OC(Cl)C(=O)c1ccccc1 (centres undefined) |
| 147 to 149 | CC(=O)Nc1ccc(SCc2nc3ccccc3s2)cc1 |
| 153 | COc1cc(N(CC(C)C)CC(C)C)ccc1CN1C(=O)C(C)(c2ccccc2Cl)c2cc(Cl)ccc21 (centres undefined) |
| 202 to 203 | CC(C)n1c(C=O)c(-c2ccc(F)cc2)c(-c2ccccc2)c1C(=O)Nc1cccc(C(=O)N(C)C)c1 |
| 128 to 130 | CC(=NOCCOc1ccc(C[C@H](Oc2ccc(C)cc2)C(=O)O)cc1)c1ccc(-c2ccccc2)cc1 |
| 250 to 253 | O=c1[nH]ccc2c1ccc1[nH]cc(CCN(Cc3ccccc3)Cc3ccccc3)c12 |
| 151 to 153 | Oc1cccc(OCc2ccc3ccccc3n2)c1 |
| 141 to 145 | O=C1NC2CCC(=O)N2[C@H]1Cc1ccccc1 (some centres undefined) |
| 150 to 156 | CC1=NC(NC(=O)Nc2cccc(C)c2)C(=O)N(CC(=O)C2CCCC2)c2c(C)cccc21 (centres undefined) |
| 167 to 168 | OC(c1ccc(Cl)cc1)(c1ccc(Cl)cc1)c1nccn1Cc1ccccc1 |
| 167 | COc1ccc(Br)c(C(=O)N2CCN(S(=O)(=O)c3ccccc3F)CC2)c1 |
| 97 to 98 | COC(=O)c1ccc(-c2ccccc2-c2nnn(C(C)(C)c3ccccc3)n2)cc1 |
| 102 to 103 | Cc1ccccc1CCNC(=O)c1ccc(Br)cc1 |
| 290 to 291 | O=c1cc(Nc2ccccc2)[nH]n1-c1ccc(S(=O)(=O)O)cc1 |
| 118 to 119 | c1ccc(SC2CCN(C(c3ccccc3)c3ccccc3)CC2)cc1 |
| 210 to 215 | COCCc1nc2c(N)nc3ccccc3c2n1CCCNS(=O)(=O)c1cccc2c(N(C)C)cccc12 |
| 169 to 171 | Cc1nccn1CC1CC2CCCn3c2c(c2ccccc23)C1=O (centres undefined) |
| 259 to 261 | C[C@@H](CO)CCn1c(C(=O)NCc2cc(C(F)(F)F)cc(C(F)(F)F)c2)c(-c2ccc(Cl)cc2)c2cccnc2c1=O |
| 131 | O=C(NCc1cncc(F)c1)c1ccc(S(=O)(=O)n2cc(-c3ccccc3)c3ccccc32)cc1 |
| 134 | O=c1[nH]c2ccccc2n1CCCN1CCC(O)(c2ccc(Cl)cc2)CC1 |
| 180 to 183 | COCCO[C@@H]1c2ccn3c(CO)c(C)nc3c2N[C@H](c2ccccc2)[C@H]1O |

| melting point [°C] | SMILES |
| --- | --- |
| 139 to 141 | O=C(NCc1cccc(C(F)(F)F)c1)c1sc2ccccc2c1O |
| 198 | Cn1ncnc1COc1nn2c(-c3cccc(F)c3)nncc2c1-c1ccccc1 |
| 193 | O=C(c1ccc(F)cc1)C1CCN(CCCn2c(=O)[nH]c(=O)c3ccccc32)CC1 |
| 156 to 159 | CC(=O)OCC(=O)NCCCn1c(-c2ccc(Br)cc2)csc1=Nc1ccccc1 |
| 209 to 211 | Cc1cc(O)ccc1Nc1ccccc1C(=O)O |
| 128 to 129 | CCOc1cc(C(CC(C)=O)N2C(=O)c3cccc(NC(C)=O)c3C2=O)ccc1OC (centres undefined) |
| 161 to 163 | COCCN(C)Cc1c(-c2ccc(NC(=O)NOC)cc2)sc2c1c(=O)n(-c1ccccc1)c(=O)n2Cc1c(F)cccc1F |
| 149 to 150 | CC(=O)N(C(C)=O)C1=C(N2CCN(c3ccc(F)cc3)CC2)C(=O)c2ccccc2C1=O |
| 148 | CCCN(C1CCC(c2c[nH]c3ccc(F)cc23)CC1)C1COc2cccc(OC)c2C1 (centres undefined) |
| 237 to 238 | O=C(O)CCn1c(=O)n(CCCN2CCC(OC(c3ccccc3)c3ccccc3)CC2)c(=O)c2ccccc21 |
| 164 to 166 | O=C(CCCCc1ncc[nH]1)NNC(=O)N1Cc2ccccc2Oc2ccc(Cl)cc21 |
| 173 to 174 | CCCOC(=O)c1cc(=O)c2c(OCc3ccc(OCc4ccc5ccccc5n4)cc3)c(Cl)ccc2o1 |
| 148 | C[C@H](COc1ccc(C=C2SC(=S)N(CC(=O)O)C2=O)cc1OCc1ccccc1)c1ccccc1 |
| 221 to 223 | Cc1ccsc1C(=O)c1cccn1N1C(=O)c2ccccc2C1=O |
| 130 | CC(C)c1ccc(N(Cc2cnn(Cc3ccccc3)c2)C(=O)C2CCCc3c(O)cccc32)cc1 (centres undefined) |
| 195 | Cc1ccc(-c2nn(-c3cccc4ccccc34)c(N)c2C(N)=O)cc1 |
| 141 to 142 | CCCN(CCC)[C@@H]1CCc2cc(CNC(=O)c3ccc(Cl)cc3)ccc2C1 |
| 195 | CC(=O)c1ccc2c(NCc3ccc(NC(=O)c4ccc(F)cc4)cc3)nc(N(C)C)nc2c1 |
| 219 to 220 | Cn1cc(C(=O)NCc2ccc(Cl)cc2)c(=O)c2cc(CN=[N+]=[N-])ccc21 |
| 59 to 60 | CCN(CC)CCOc1cccc2c1c1cccc(F)c1n2Cc1ccc(F)cc1 |
| 102 to 103 | COc1ccc2[nH]c(C)c(CCNC(=O)C3CC3)c2c1 |
